US20250059174A1, “Pharmaceutical Compounds and Compositions as C-Kit Kinase Inhibitors” (Enanta Pharmaceuticals, Inc., priority 2023, published 2025)

Columns and labels:
[1] = target: Recombinant human c-KIT kinase (Homo sapiens (Human), UniProt P10721); assay: c-KIT kinase chemiluminescence assay (ADP-Glo); format: biochemical; settings: ATP 50 μM
Summary of the method: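 Recombinant human c-KIT preincubated 30 min at RT in 40 mM Tris pH 7.5, 20 mM MgCl2, 0.1 mg/mL BSA, 50 μM DTT, then reacted 2 h at RT with ATP and polyEY substrate. ADP-Glo luminescence readout; activity normalized to high/low controls, IC50 and Hill coefficient from inhibitor-versus-normalized-response fit.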

M-07e cells = assay: M-07e cellular assay (SCF-mediated cell proliferation); format: cell-based; settings: Homo sapiens, 72 hours, CellTiter Glo
Summary of the method: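 Readout came from CellTiter Glo after 72 h of compound treatment in SCF (EC90)-stimulated, pre-starved M-07e cells at 37 °C.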

Chain of Recombinant human c-KIT kinase (P10721 26-976): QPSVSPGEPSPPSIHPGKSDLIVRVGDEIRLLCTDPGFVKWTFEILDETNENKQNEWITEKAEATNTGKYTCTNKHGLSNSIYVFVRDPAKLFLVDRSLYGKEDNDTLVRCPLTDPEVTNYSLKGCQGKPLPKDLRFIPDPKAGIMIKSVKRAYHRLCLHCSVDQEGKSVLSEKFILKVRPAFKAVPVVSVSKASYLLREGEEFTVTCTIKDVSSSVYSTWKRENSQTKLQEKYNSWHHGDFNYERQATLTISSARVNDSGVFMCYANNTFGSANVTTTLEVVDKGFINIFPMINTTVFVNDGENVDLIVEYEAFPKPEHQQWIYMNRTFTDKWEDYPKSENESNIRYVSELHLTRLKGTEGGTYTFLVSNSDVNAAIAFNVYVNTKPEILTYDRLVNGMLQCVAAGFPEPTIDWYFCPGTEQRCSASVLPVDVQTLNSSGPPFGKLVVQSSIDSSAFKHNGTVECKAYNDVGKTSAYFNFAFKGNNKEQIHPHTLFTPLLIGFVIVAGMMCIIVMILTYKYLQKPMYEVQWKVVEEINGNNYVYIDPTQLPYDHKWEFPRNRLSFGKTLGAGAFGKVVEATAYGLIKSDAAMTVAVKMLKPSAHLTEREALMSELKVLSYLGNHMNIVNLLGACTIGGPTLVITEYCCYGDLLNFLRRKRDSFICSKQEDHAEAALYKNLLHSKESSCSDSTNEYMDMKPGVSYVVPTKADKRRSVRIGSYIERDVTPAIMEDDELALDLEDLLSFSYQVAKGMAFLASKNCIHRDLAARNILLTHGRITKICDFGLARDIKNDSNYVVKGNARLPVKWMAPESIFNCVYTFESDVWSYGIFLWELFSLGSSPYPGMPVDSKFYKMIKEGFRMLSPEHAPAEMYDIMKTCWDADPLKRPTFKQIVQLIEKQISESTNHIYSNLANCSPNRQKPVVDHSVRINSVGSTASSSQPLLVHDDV

With Cc1ccc(-c2noc([C@H]3C[C@@H]3F)n2)cc1NC(=O)c1cnc(-c2ccc3[nH]c4c(c3c2)CCNC4)o1 [Example 308-57] the IC50 [1] was < 100 nM and the EC50 (M-07e cells) was 100 to 1000 nM.

In the case of COC(=O)N1CC(c2nc(-c3ccc(C)c(NC(=O)c4cnc(-c5ccc6c(c5)CC(=O)N6)o4)c3)no2)C1 [Example 308-58], the IC50 [1] is reported as < 100 nM and the EC50 (M-07e cells) is reported as 100 to 1000 nM.

COC(=O)N1CC(c2nc(-c3cc(NC(=O)c4cnc(-c5ccc6c(c5)CC(=O)N6)o4)c(C)cc3F)no2)C1 [Example 308-59] gave an IC50 [1] of 100 to 1000 nM and an EC50 (M-07e cells) of 100 to 1000 nM.

Cc1ccc(-c2noc(C3CN(C(=O)OCc4ccccc4)C3)n2)cc1NC(=O)c1cnc(-c2ccc3c(c2)CC(=O)N3)o1 [Example 308-60] was tested, and the IC50 [1] was > 1000 nM and the EC50 (M-07e cells) was > 1000 nM.

Cc1ccc(-c2noc([C@H]3C[C@@H]3F)n2)cc1NC(=O)c1cnc(-c2ccc3c(c2)C(C)C(=O)N3)o1 (stereo partly shown) [Example 308-61] gave an IC50 [1] of 100 to 1000 nM and an EC50 (M-07e cells) of 100 to 1000 nM.

In the case of Cc1ccc(-c2noc(C3CN(C(=O)OC(C)C)C3)n2)cc1NC(=O)c1cnc(-c2ccc3c(c2)CC(=O)N3)o1 [Example 308-62], the IC50 [1] is reported as 100 to 1000 nM and the EC50 (M-07e cells) is reported as > 1000 nM.

With Cc1ccc(-c2noc(C3CN(C(=O)OC4CC4)C3)n2)cc1NC(=O)c1cnc(-c2ccc3c(c2)CC(=O)N3)o1 [Example 308-63] the IC50 [1] was 100 to 1000 nM and the EC50 (M-07e cells) was 100 to 1000 nM.

For Cc1ccc(-c2noc([C@H]3C[C@@H]3F)n2)cc1NC(=O)c1cnc(-c2ccc(C(C)(C)O)s2)o1 [Example 308], the IC50 [1] was > 1000 nM and the EC50 (M-07e cells) was > 1000 nM.

With Cc1ncc(-c2nnnn2C)cc1NC(=O)c1cnn2ccc(N3CC4(C3)CC(O)(C(F)F)C4)cc12 [Example 312-1] the IC50 [1] was > 1000 nM and the EC50 (M-07e cells) was > 1000 nM.

For Cc1ncc(-c2nnn(C)n2)cc1NC(=O)c1cnn2ccc(N3CC4(C3)CC(O)(C(F)F)C4)cc12 [Example 312-2], the IC50 [1] was 100 to 1000 nM and the EC50 (M-07e cells) was < 100 nM.

For [2H]C([2H])([2H])n1nnnc1-c1cnc(C)c(NC(=O)c2cnn3ccc(N4CC5(C4)CC(O)(C(F)F)C5)cc23)c1 [Example 312-3], the IC50 [1] was > 1000 nM and the EC50 (M-07e cells) was > 1000 nM.

[2H]C([2H])([2H])n1nnc(-c2cnc(C)c(NC(=O)c3cnn4ccc(N5CC6(C5)CC(O)(C(F)F)C6)cc34)c2)n1 [Example 312-4] was tested, and the IC50 [1] was 100 to 1000 nM and the EC50 (M-07e cells) was < 100 nM.

With Cc1ncc(-c2nnn(CC(F)(F)F)n2)cc1NC(=O)c1cnn2ccc(N3CC4(C3)CC(O)(C(F)F)C4)cc12 [Example 312-5] the IC50 [1] was > 1000 nM and the EC50 (M-07e cells) was < 100 nM.

With Cc1ncc(-c2nnn(C(C)C)n2)cc1NC(=O)c1cnn2ccc(N3CC4(C3)CC(O)(C(F)F)C4)cc12 [Example 312-6] the IC50 [1] was > 1000 nM and the EC50 (M-07e cells) was < 100 nM.

Cc1ncc(-c2nnn(CC3CC3)n2)cc1NC(=O)c1cnn2ccc(N3CC4(C3)CC(O)(C(F)F)C4)cc12 [Example 312-7] was tested, and the IC50 [1] was 100 to 1000 nM and the EC50 (M-07e cells) was < 100 nM.

For Cc1ncc(-c2nnn(C3CNC3)n2)cc1NC(=O)c1cnn2ccc(N3CC4(C3)CC(O)(C(F)F)C4)cc12 [Example 312-8], the IC50 [1] was > 1000 nM and the EC50 (M-07e cells) was > 1000 nM.

With Cc1ncc(-c2nnn(C3CN(C(=O)OC(C)(C)C)C3)n2)cc1NC(=O)c1cnn2ccc(N3CC4(C3)CC(O)(C(F)F)C4)cc12 [Example 312-9] the IC50 [1] was > 1000 nM and the EC50 (M-07e cells) was 100 to 1000 nM.

Cc1ncc(-c2nnn(C3CC(F)(F)C3)n2)cc1NC(=O)c1cnn2ccc(N3CC4(C3)CC(O)(C(F)F)C4)cc12 [Example 312] was tested, and the IC50 [1] was 100 to 1000 nM and the EC50 (M-07e cells) was < 100 nM.

In the case of Cc1ccc(-c2ncc(OC(F)F)cn2)cc1NC(=O)c1cnn2ccc(N3CC4(C3)CC(O)(C(F)F)C4)cc12 [Example 314], the IC50 [1] is reported as < 100 nM and the EC50 (M-07e cells) is reported as < 100 nM.

For Cc1ccc(-c2ncc(OC(F)(F)F)cn2)cc1NC(=O)c1cnn2ccc(N3CC4(C3)CC(O)(C(F)F)C4)cc12 [Example 315], the IC50 [1] was < 100 nM and the EC50 (M-07e cells) was < 100 nM.

In the case of Cc1ncc(-c2ncc(OC(F)F)cn2)cc1NC(=O)c1cnn2ccc(N3CC4(C3)CC(O)(C(F)F)C4)cc12 [Example 316], the IC50 [1] is reported as 100 to 1000 nM and the EC50 (M-07e cells) is reported as 100 to 1000 nM.

Cc1ncc(-c2ncc(C3CC3)cn2)cc1NC(=O)c1cnn2ccc(N3CC4(C3)CC(O)(C(F)F)C4)cc12 [Example 317] was tested, and the IC50 [1] was 100 to 1000 nM and the EC50 (M-07e cells) was < 100 nM.

In the case of Cc1ccc(-c2nc3cc(F)ccn3n2)cc1NC(=O)c1cnn2ccc(N3CC4(C3)CC(O)(C(F)F)C4)cc12 [Example 318], the IC50 [1] is reported as < 100 nM and the EC50 (M-07e cells) is reported as < 100 nM.

Cc1ccc(-c2ncc3c(ccn3C(F)F)n2)cc1NC(=O)c1cnn2ccc(N3CC4(C3)CC(O)(C(F)F)C4)cc12 [Example 319] was tested, and the IC50 [1] was < 100 nM and the EC50 (M-07e cells) was < 100 nM.

With Cc1ccc(-c2ncc3cccn3n2)cc1NC(=O)c1cnn2ccc(N3CC4(C3)CC(O)(C(F)F)C4)cc12 [Example 320] the IC50 [1] was < 100 nM and the EC50 (M-07e cells) was < 100 nM.

Cc1ccc(-c2nc3n(n2)CCCC3)cc1NC(=O)c1cnn2ccc(N3CC4(C3)CC(O)(C(F)F)C4)cc12 [Example 321] gave an IC50 [1] of 100 to 1000 nM and an EC50 (M-07e cells) of 100 to 1000 nM.

For Cc1ccc(-c2nc3n(n2)CCN(C(=O)OC(C)(C)C)C3)cc1NC(=O)c1cnn2ccc(N3CC4(C3)CC(O)(C(F)F)C4)cc12 [Example 322], the IC50 [1] was < 100 nM and the EC50 (M-07e cells) was 100 to 1000 nM.

In the case of Cc1ccc(-c2nc3n(n2)CCN(C(=O)C2CC2)C3)cc1NC(=O)c1cnn2ccc(N3CC4(C3)CC(O)(C(F)F)C4)cc12 [Example 323], the IC50 [1] is reported as 100 to 1000 nM and the EC50 (M-07e cells) is reported as > 1000 nM.

COC(=O)N1CCn2nc(-c3ccc(C)c(NC(=O)c4cnn5ccc(N6CC7(C6)CC(O)(C(F)F)C7)cc45)c3)nc2C1 [Example 324] gave an IC50 [1] of 100 to 1000 nM and an EC50 (M-07e cells) of 100 to 1000 nM.

Cc1ncc(-c2ncc(C(C)C)cn2)cc1NC(=O)c1cnn2ccc(N3CC4(C3)CC(O)(C(F)F)C4)cc12 [Example 326] was tested, and the IC50 [1] was < 100 nM and the EC50 (M-07e cells) was < 100 nM.

For Cc1ncc(-c2ncc(C(F)F)cn2)cc1NC(=O)c1cnn2ccc(N3CC4(C3)CC(O)(C(F)F)C4)cc12 [Example 327], the IC50 [1] was 100 to 1000 nM and the EC50 (M-07e cells) was 100 to 1000 nM.

For Cc1ncc(-c2ncc(C(F)(F)F)cn2)cc1NC(=O)c1cnn2ccc(N3CC4(C3)CC(O)(C(F)F)C4)cc12 [Example 328], the IC50 [1] was 100 to 1000 nM and the EC50 (M-07e cells) was < 100 nM.

With Cc1ccc(-c2cnc(OC(F)F)nc2)cc1NC(=O)c1cnn2ccc(N3CC4(COC4)C3)cc12 [Example 329] the IC50 [1] was < 100 nM and the EC50 (M-07e cells) was 100 to 1000 nM.

With Cc1ncc(-c2ccc(OC(F)F)nc2)cc1NC(=O)c1cnn2ccc(N3CC4(COC4)C3)cc12 [Example 330] the IC50 [1] was 100 to 1000 nM and the EC50 (M-07e cells) was < 100 nM.

In the case of Cc1ncc(-c2ccc(OC(F)F)cn2)cc1NC(=O)c1cnn2ccc(N3CC4(C3)CC(O)(C(F)F)C4)cc12 [Example 331], the IC50 [1] is reported as 100 to 1000 nM and the EC50 (M-07e cells) is reported as < 100 nM.

With Cc1ncc(-c2ccc(OC(F)(F)F)cn2)cc1NC(=O)c1cnn2ccc(N3CC4(COC4)C3)cc12 [Example 332] the IC50 [1] was 100 to 1000 nM and the EC50 (M-07e cells) was < 100 nM.

Cc1ncc(-c2ccc(OC(F)(F)F)cn2)cc1NC(=O)c1cnn2ccc(N3CC4(C3)CC(O)(C(F)F)C4)cc12 [Example 333] was tested, and the IC50 [1] was < 100 nM and the EC50 (M-07e cells) was < 100 nM.

In the case of Cc1ccc(-c2nccc(C3CC3)n2)cc1NC(=O)c1cnn2ccc(N3CC4(COC4)C3)cc12 [Example 334], the IC50 [1] is reported as 100 to 1000 nM and the EC50 (M-07e cells) is reported as < 100 nM.

With Cc1ccc(-c2ncc(C3CC3)cn2)cc1NC(=O)c1cnn2ccc(N3CC4(COC4)C3)cc12 [Example 335] the IC50 [1] was < 100 nM and the EC50 (M-07e cells) was < 100 nM.

For Cc1ccc(-c2ccc(C3CC3)cn2)cc1NC(=O)c1cnn2ccc(N3CC4(COC4)C3)cc12 [Example 336], the IC50 [1] was < 100 nM and the EC50 (M-07e cells) was < 100 nM.

With Cc1ccc(-c2ncc(C(F)(F)F)cn2)cc1NC(=O)c1cnn2ccc(N3CC4(COC4)C3)cc12 [Example 337] the IC50 [1] was 100 to 1000 nM and the EC50 (M-07e cells) was < 100 nM.
